Measurements reported in patent publication US20140073801A1, “PYRROLIDINE DERIVATIVES AS SELECTIVE GLYCOSIDASE INHIBITORS AND USES THEREOF” (Summit Corporation Plc, priority 2011, published 2014).

What was measured:
[1] = target: T1, human OGA (Homo sapiens, UniProt O60502); experiment: Determination of IC50 values for inhibition of human OGA; type: biochemical
T1 construct: made in house
T1 sequence (O60502 1-916): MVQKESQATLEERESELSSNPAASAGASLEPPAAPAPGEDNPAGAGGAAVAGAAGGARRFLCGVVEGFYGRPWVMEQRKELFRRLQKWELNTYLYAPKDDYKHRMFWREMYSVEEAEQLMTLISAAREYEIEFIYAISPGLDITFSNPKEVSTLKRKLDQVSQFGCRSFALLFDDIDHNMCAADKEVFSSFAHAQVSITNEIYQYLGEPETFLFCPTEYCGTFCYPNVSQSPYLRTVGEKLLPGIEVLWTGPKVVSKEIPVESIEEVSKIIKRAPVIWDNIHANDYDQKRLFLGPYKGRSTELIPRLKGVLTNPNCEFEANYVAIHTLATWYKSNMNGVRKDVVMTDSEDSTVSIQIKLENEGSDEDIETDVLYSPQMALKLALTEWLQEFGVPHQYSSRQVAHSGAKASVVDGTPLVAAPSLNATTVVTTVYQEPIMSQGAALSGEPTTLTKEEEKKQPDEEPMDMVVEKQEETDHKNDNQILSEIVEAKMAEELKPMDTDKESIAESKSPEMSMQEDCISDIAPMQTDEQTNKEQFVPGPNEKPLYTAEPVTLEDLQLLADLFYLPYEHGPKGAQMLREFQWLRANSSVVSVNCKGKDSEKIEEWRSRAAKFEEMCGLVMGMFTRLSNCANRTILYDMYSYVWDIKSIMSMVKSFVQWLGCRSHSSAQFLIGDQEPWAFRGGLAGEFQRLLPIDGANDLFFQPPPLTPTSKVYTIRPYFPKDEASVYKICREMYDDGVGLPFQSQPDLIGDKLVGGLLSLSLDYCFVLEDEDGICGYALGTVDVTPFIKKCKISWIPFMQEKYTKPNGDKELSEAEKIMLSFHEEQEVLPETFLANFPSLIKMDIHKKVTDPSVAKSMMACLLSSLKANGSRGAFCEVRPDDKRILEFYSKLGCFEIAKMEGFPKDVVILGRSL
Method: Inhibitors identified from the screen described in Example 1 were evaluated for IC50 using a procedure adapted from Biochem. J. 2009, 420, 221-227. IC50 determination was carried out using a range of inhibitor concentrations from 300 μM to 0.003 μM or 100 μM to 0.001 μM. IC50 values were calculated using XLFit 4.

[2] = target: T2, human β-hexosaminidase [human placenta] (HexA/B); experiment: Determination of IC50 values for inhibition of human β-hexosaminidase; type: biochemical; settings: human β-hexosaminidase, human placenta; room temperature, thirty minutes
T2 construct: other: human β-hexosaminidase, human placenta; room temperature, thirty minutes
Method: (§1) Inhibitors identified from the screen described in Example 1 were evaluated for IC50 against human β-hexosaminidase [human placenta, Sigma-Aldrich] using a range of inhibitor concentrations from 300 μM to 0.003 μM or 100 μM to 0.001 μM and the following reaction conditions:
(§2) Reactions were carried out at room temperature for thirty minutes and then quenched through the addition of 150 μl 0.5M Na2CO3. Fluorescence readings were taken at excitation wavelength 360 nm and emission wavelength 450 nm. IC50 values were calculated using XLFit 4. The selectivity ratio for inhibition of human O-GlcNAcase over human β-hexosaminidase is defined here as:
(§3) IC50(human β-hexosaminidase)/IC50(Human OGA)

[3] = tested on: human β-hexosaminidase [human placenta] (HexA/B); experiment: as above; type: biochemical; settings: ratio
Method: as §1, §2, §3

[4] = tested on: O-GlcNAc modified proteins in PC-12 cells or SH-SY5Y cells; experiment: Western blot analyses of O-GlcNAc modified proteins in cells; type: cell-based; settings: western blot, cells dosed 4 hours at 37° C.; cell line not given
Method: PC-12 cells or SH-SY5Y cells were dosed with the test compound or vehicle control at 37° C. for 4 hours. Once the incubation was completed the media was removed and cells were lysed. Extracted protein was then used for Western blot analysis using standard molecular biology techniques. The resulting membrane was probed with antibodies specific for tau phosphorylation sites (pSer396, pSer422, pThr231, pSer262) or with antibodies specific for O-GlcNAcylation sites (RL-2 or CTD110.6). The primary antibodies were visualised using appropriate secondary conjugated with the fluorophores Alexa 532 or Alexa 488. Actin was visualised using a FITC conjugated primary antibody. Relative quantification was measured in relation to the actin signal using Image lab software (BRL). Marked increases in O-GlcNAcylated proteins within the cells were observed as compared to controls when cells were dosed with test compound.

[5] = target: T1, human OGA; experiment: Determination of Ki values for inhibition of human OGA (4MU-GlcNAc substrate); type: biochemical; settings: 2 nM human OGA, McIlvaine buffer pH 7.4, one hour
Method: Enzymatic reactions were carried out in McIlvaine buffer (0.2M Na2PO4, 0.1M citric acid; pH 7.4) using 2 nM human OGA and 4MU-GlcNAc as substrate in the presence of inhibitor. For the Ki of AXX inhibitor concentrations were 0, 20, 40, 80, 160 and 320 nM [for the Ki determination of other compounds either the same concentrations or similar concentrations were used] and 4MU-GlcNAc concentrations were 50, 100, 200, 400, 800, 1600, and 3200 μM. Reactions were left for one hour. […] Modes of inhibition were determined by Lineweaver-Burke analysis and Ki values were determined using GraphPad 5 Prism non-linear regression analysis.

| SMILES | IC50 [1] [nM] | IC50 [2] [nM] | Selectivity: IC50(human β-hexosaminidase)/IC50(Human OGA) [3] | EC50 [4] [nM] | Ki [5] [nM] |
| --- | --- | --- | --- | --- | --- |
| CNC(=O)C[C@@H]1[C@H](O)[C@H](O)[C@@H](CO)N1CCc1ccccc1 [Compound A010, 2-((2R,3S,4R,5R)-3,4-dihydroxy-5-(hydroxymethyl)-1-phenethylpyrrolidin-2-yl)-N-methylacetamide] | 9 | 33000 | 3666 | 1540 |  |
| CCN1[C@H](CC(=O)NC)[C@H](O)[C@H](O)[C@H]1CO [Compound A019, 2-((2R,3S,4R,5R)-1-ethyl-3,4-dihydroxy-5-(hydroxymethyl)pyrrolidin-2-yl)-N-methylacetamide] | 69 | > 300000 | >4366 | 1900 |  |
| CNC(=O)C[C@H]1N[C@H](CO)[C@@H](O)[C@H]1O [Compound A007, 2-((2R,3S,4R,5R)-3,4-dihydroxy-5-(hydroxymethyl)pyrrolidin-2-yl)-N-methylacetamide] | 102 | > 300000 | >3000 | 4000 |  |
| CCCCCCCCCN1[C@H](CC(=O)NCCC)[C@H](O)[C@H](O)[C@H]1CO [Compound A008, 2-((2R,3S,4R,5R)-3,4-dihydroxy-5-(hydroxymethyl)-1-nonylpyrrolidin-2-yl)-N-propylacetamide] | 12 | > 300000 | >25000 |  | 55 |
| CCNC(=O)C[C@H]1N[C@H](CO)[C@@H](O)[C@@H]1O [Compound A050, 2-((2R,3R,4R,5R)-3,4-dihydroxy-5-(hydroxymethyl)pyrrolidin-2-yl)-N-ethylacetamide] | 412 | > 300000 | >728 | 2720 |  |
| CNC(=O)C[C@@H]1[C@H](O)[C@H](O)[C@@H](CO)N1CCCC(C)C [Compound A018, 2-((2R,3S,4R,5R)-3,4-dihydroxy-5-(hydroxymethyl)-1-(4-methylpentyl)pyrrolidin-2-yl)-N-methylacetamide] | 14 | 69000 | 5000 | 931 |  |
| CCCNC(=O)C[C@H]1N[C@H](CO)[C@@H](O)[C@@H]1O [Compound A052, 2-((2R,3R,4R,5R)-3,4-dihydroxy-5-(hydroxymethyl)pyrrolidin-2-yl)-N-propylacetamide] | 113 | > 300000 | >2654 | 1070 |  |
| CN(C)c1ccc(S(=O)(=O)NCCCCCCN2[C@H](CC(N)=O)[C@H](O)[C@H](O)[C@H]2CO)c2ccccc12 [Compound A015, 2-((2R,3S,4R,5R)-1-(6-(4-(dimethylamino)naphthalene-1-sulfonamido)hexyl)-3,4-dihydroxy-5-(hydroxymethyl)pyrrolidin-2-yl)acetamide] | < 3 | 11000 | >3666 | 80 |  |
| CCCCCCN1[C@@H](CO)[C@H](O)[C@H](O)[C@@H]1CC(=O)NC [Compound A024, 2-((2S,3R,4S,5S)-1-hexyl-3,4-dihydroxy-5-(hydroxymethyl)pyrrolidin-2-yl)-N-methylacetamide] | 143000 | 44000 | 0.31 |  |  |
| CCCCN1[C@H](CC(=O)NC)[C@H](O)[C@H](O)[C@H]1CO [Compound A017, 2-((2R,3S,4R,5R)-1-butyl-3,4-dihydroxy-5-(hydroxymethyl)pyrrolidin-2-yl)-N-methylacetamide] | 56 | 196000 | 3500 |  |  |
| CC(=O)NC[C@@H]1[C@H](O)[C@H](O)[C@@H](CO)N1CCCc1ccccc1 [Compound A038, N-(((2R,3S,4R,5R)-3,4-dihydroxy-5-(hydroxymethyl)-1-(3-phenylpropyl)pyrrolidin-2-yl)methyl)acetamide] | 1300 | > 300000 | >230 |  |  |
| CNC(=O)C[C@@H]1[C@H](O)[C@H](O)[C@@H](CO)N1CCC1CCCCC1 [Compound A041, 2-((2R,3S,4R,5R)-1-(2-cyclohexylethyl)-3,4-dihydroxy-5-(hydroxymethyl)pyrrolidin-2-yl)-N-methylacetamide] | 14 | 114000 | 8142 |  |  |

Further lines, results first:

| IC50 [1] [nM] | IC50 [2] [nM] | Selectivity: IC50(human β-hexosaminidase)/IC50(Human OGA) [3] | EC50 [4] [nM] | Ki [5] [nM] | SMILES |
| --- | --- | --- | --- | --- | --- |
| < 3 | 10100 | >3366 | 127 |  | CNC(=O)C[C@@H]1[C@H](O)[C@H](O)[C@@H](CO)N1CCCCCNS(=O)(=O)c1ccc(C)cc1 [Compound A064, 2-((2R,3S,4R,5R)-3,4-dihydroxy-5-(hydroxymethyl)-1-(5-(4-methylphenylsulfonamido)pentyl)pyrrolidin-2-yl)-N-methylacetamide] |
| 36 | > 300000 | >8333 | 1010 |  | CCNC(=O)C[C@@H]1[C@@H](O)[C@H](O)[C@@H](CO)N1CCCc1ccc(Cl)cc1 [Compound A063, 2-((2R,3R,4R,5R)-1-(3-(4-chlorophenyl)propyl)-3,4-dihydroxy-5-(hydroxymethyl)pyrrolidin-2-yl)-N-ethylacetamide] |
| 119 | > 300000 | >2529 | 3720 |  | CCCCCCN1[C@H](CO)[C@@H](O)[C@H](O)[C@H]1CC(=O)NCCC [Compound A055, 2-((2R,3R,4R,5R)-1-hexyl-3,4-dihydroxy-5-(hydroxymethyl)pyrrolidin-2-yl)-N-propylacetamide] |
| 62.9 | > 300000 | >4769 | 1410 |  | CCCCCCN1[C@H](CO)[C@@H](O)[C@H](O)[C@H]1CC(=O)NCC [Compound A053, N-ethyl-2-((2R,3R,4R,5R)-1-hexyl-3,4-dihydroxy-5-(hydroxymethyl)pyrrolidin-2-yl)acetamide] |
| 224000 | > 300000 | >1.34 |  |  | CCNC(=O)C[C@@H]1[C@@H](O)[C@H](O)[C@@H](CO)N1C(=O)CCc1ccccc1 [Compound A069, 2-((2R,3R,4R,5R)-3,4-dihydroxy-5-(hydroxymethyl)-1-(3-phenylpropanoyl)pyrrolidin-2-yl)-N-ethylacetamide] |
| 3.7 | 242000 | >65405 |  | 64 | CCNC(=O)C[C@@H]1[C@@H](O)[C@H](O)[C@@H](CO)N1CCC(c1ccccc1)c1ccccc1 [Compound A068, 2-((2R,3R,4R,5R)-1-(3,3-diphenylpropyl)-3,4-dihydroxy-5-(hydroxymethyl)pyrrolidin-2-yl)-N-ethylacetamide] |
